Source: the supplement of paper PMC11061612

Experiments:
[1] = compound: C1CC(C1)(C(=O)[O-])C(=O)[O-].N.N.[Pt+2] [Carboplatin]; details: max 10 µM
How it was run: (§1)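 Cancer cell lines were seeded in 1536-well plates in 7.5 μl DMEM/F12 or RPMI with 10% FBS, held 24 hours at 37°C and 5% CO2, then dosed for 72 hours (final DMSO typically 0.2%). Viability was read by CellTiter-Glo 2.0 luminescence and scaled between blank-well and DMSO-well means. The single-agent IC50 comes from dose responses fitted to a two-parameter logistic curve with a non-linear mixed effects model.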

[2] = compound: C1CN(CCC1(C(=O)N[C@@H](CCO)C2=CC=C(C=C2)Cl)N)C3=NC=NC4=C3C=CN4 [AZD5363]; details: max 10 µM
How it was run: as §1

[3] = compound: C=CCn1c(=O)c2cnc(Nc3ccc(N4CCN(C)CC4)cc3)nc2n1-c1cccc(C(C)(C)O)n1 [AZD1775]; details: max 3 µM
How it was run: as §1

[4] = compound: CC(=O)Nc1cccc(-n2c(=O)n(C3CC3)c(=O)c3c(Nc4ccc(I)cc4F)n(C)c(=O)c(C)c32)c1 [Trametinib]; details: max 1 µM
How it was run: as §1

[5] = compound: CC(=O)O[C@H]1C(=O)[C@@]2(C)[C@H]([C@H](OC(=O)c3ccccc3)[C@]3(O)C[C@H](OC(=O)[C@H](O)[C@@H](NC(=O)c4ccccc4)c4ccccc4)C(C)=C1C3(C)C)[C@]1(OC(C)=O)CO[C@@H]1C[C@@H]2O [Paclitaxel]; details: max 3 µM
How it was run: as §1

[6] = compound: CC(=O)c1c(C)c2cnc(Nc3ccc(N4CCNCC4)cn3)nc2n(C2CCCC2)c1=O [Palbociclib]; details: max 10 µM
How it was run: as §1

[7] = compound: CC(C)n1c(=O)n(C)c2cnc3cc(F)c(-c4ccc(OCCCN5CCCCC5)nc4)cc3c21 [AZD1390]; details: max 0.3 µM
How it was run: as §1

[8] = compound: CC1(C)CCC(CN2CCN(c3ccc(C(=O)NS(=O)(=O)c4ccc(NCC5CCOCC5)c([N+](=O)[O-])c4)c(Oc4cnc5[nH]ccc5c4)c3)CC2)=C(c2ccc(Cl)cc2)C1 [Venetoclax]; details: max 1 µM
How it was run: as §1

[9] = compound: CC1=C(C(=CC=C1)Cl)NC(=O)C2=CN=C(S2)NC3=CC(=NC(=N3)C)N4CCN(CC4)CCO [Dasatinib]; details: max 2 µM
How it was run: as §1

[10] = compound: CC1=CN2[C@@H](C1)C=NC3=CC(=C(C=C3C2=O)OC)OCCCCCOC4=C(C=C5C(=C4)N=C[C@@H]6CC(=CN6C5=O)C)OC [SG3199]; details: max 0.001 µM
How it was run: as §1

[11] = compound: CCN(CCO)CCCOc1ccc2c(Nc3cc(CC(=O)Nc4cccc(F)c4)[nH]n3)ncnc2c1 [AZD2811]; details: max 1 µM
How it was run: as §1

[12] = compound: CCc1c2c(nc3ccc(O)cc13)-c1cc3c(c(=O)n1C2)COC(=O)[C@]3(O)CC [SN-38]; details: max 0.3 µM
How it was run: as §1

[13] = compound: CN(C)CCCOc1ccc(-c2ccc3ncc4c(c3c2)n(C2CCOCC2)c(=O)n4C)cn1 [AZD0156]; details: max 3 µM
How it was run: as §1

[14] = compound: CN(CC[C@H](CSC1=CC=CC=C1)NC2=C(C=C(C=C2)S(=O)(=O)NC(=O)C3=CC=C(C=C3)N4CCC(CC4)[C@H](C5=CC=CC=C5C6=CC=C(C=C6)Cl)O)S(=O)(=O)C(F)(F)F)CCO [AZD4320]; details: max 1 µM
How it was run: as §1

[15] = compound: COc1cc(Nc2ncc3c(n2)-c2ccc(Cl)cc2C(c2c(F)cccc2OC)=NC3)ccc1C(=O)O [Alisertib]; details: max 10 µM
How it was run: as §1

[16] = compound: COc1cc([C@@H]2c3cc4c(cc3[C@@H](O[C@@H]3O[C@@H]5CO[C@@H](C)O[C@H]5[C@H](O)[C@H]3O)[C@H]3COC(=O)[C@H]23)OCO4)cc(OC)c1O [Etoposide]; details: max 10 µM
How it was run: as §1

[17] = compound: COc1cc2ncnc(Nc3ccc(F)c(Cl)c3)c2cc1OCCCN1CCOCC1 [Gefitinib]; details: max 10 µM
How it was run: as §1

[18] = compound: COc1cccc(OCCCN)c1-c1cc(Nc2cnc(C#N)cn2)n[nH]1 [Prexasertib]; details: max 1 µM
How it was run: as §1

[19] = compound: COc1cccc2c1C(=O)c1c(O)c3c(c(O)c1C2=O)C[C@@](O)(C(=O)CO)C[C@@H]3O[C@H]1C[C@H](N)[C@H](O)[C@H](C)O1 [Doxorubicin]; details: max 1 µM
How it was run: as §1

[20] = compound: COc1nnc2ccc(N3CCC(c4ccc(OCCN5CCN(C)C(=O)[C@H]5C)cc4)CC3)nn12 [AZD5153]; details: max 1 µM
How it was run: as §1

[21] = compound: CS(=O)(=O)CCNCc1ccc(-c2ccc3ncnc(Nc4ccc(OCc5cccc(F)c5)c(Cl)c4)c3c2)o1 [Lapatinib]; details: max 10 µM
How it was run: as §1

[22] = compound: C[C@@H](Nc1cc(F)cc(F)c1)c1cc(C(=O)N(C)C)cc2c(=O)cc(N3CCOCC3)oc12 [AZD8186]; details: max 10 µM
How it was run: as §1

[23] = compound: C[C@@H](Oc1cc(-c2cnn(C3CCNCC3)c2)cnc1N)c1c(Cl)ccc(F)c1Cl [Crizotinib]; details: max 10 µM
How it was run: as §1

[24] = compound: C[C@@H](c1ccc2nccn2c1)n1nnc2ncc(-c3cnn(C)c3)nc21 [Savolitinib]; details: max 1 µM
How it was run: as §1

[25] = compound: C[C@@H]1COCCN1C2=NC(=NC(=C2)C3(CC3)[S@](=N)(=O)C)C4=C5C=CNC5=NC=C4 [AZD6738]; details: max 10 µM
How it was run: as §1

[26] = compound: Cc1c2c(nn1C)CSCc1cc(n(C)n1)CSc1cc(c3ccccc3c1)OCCCc1c(C(=O)O)n(C)c3c-2c(Cl)ccc13 [AZD5991]; details: max 1 µM
How it was run: as §1

[27] = compound: Cc1cc2ncnn2cc1Nc1ncc2c(n1)n(C1CCOCC1)c(=O)n2C [AZD7648]; details: max 10 µM
How it was run: as §1

[28] = compound: Cc1nc(-c2cn3c(n2)-c2ccc(-c4cnn(C(C)(C)C(N)=O)c4)cc2OCC3)n(C(C)C)n1 [Taselisib]; details: max 10 µM
How it was run: as §1

[29] = compound: Cn1cnc2c(F)c(Nc3ccc(Br)cc3Cl)c(C(=O)NOCCO)cc21 [Selumetinib]; details: max 10 µM
How it was run: as §1

[30] = compound: N#Cc1cnc(Nc2cc(NC[C@H]3CNCCO3)c(C(F)(F)F)cn2)cn1 [SRA737]; details: max 10 µM
How it was run: as §1

[31] = compound: NC1(c2ccc(-c3nc4ccn5c(=O)[nH]nc5c4cc3-c3ccccc3)cc2)CCC1 [MK-2206]; details: max 10 µM
How it was run: as §1

[32] = compound: Nc1ccn([C@@H]2O[C@H](CO)[C@@H](O)C2(F)F)c(=O)n1 [Gemcitabine]; details: max 0.3 µM
How it was run: as §1

[33] = compound: O=C(Nc1ccc2[nH]nc(-c3ccncc3)c2c1)[C@@H]1CCN(CC(=O)N2CCN(c3ccc(-c4ncccn4)cc3)CC2)C1; details: max 5 µM
How it was run: as §1

[34] = compound: O=C(c1cc(Cc2n[nH]c(=O)c3ccccc23)ccc1F)N1CCN(C(=O)C2CC2)CC1 [Olaparib]; details: max 10 µM
How it was run: as §1

[35] = compound: O=c1[nH]cc(F)c(=O)[nH]1 [5-Fluorouracil]; details: max 20 µM
How it was run: as §1

Cell Line	IC50, cell viability 72 h [1] [nM]	IC50, cell viability 72 h [2] [nM]	IC50, cell viability 72 h [3] [nM]	IC50, cell viability 72 h [4] [nM]	IC50, cell viability 72 h [5] [nM]	IC50, cell viability 72 h [6] [nM]	IC50, cell viability 72 h [7] [nM]	IC50, cell viability 72 h [8] [nM]	IC50, cell viability 72 h [9] [nM]	IC50, cell viability 72 h [10] [nM]	IC50, cell viability 72 h [11] [nM]	IC50, cell viability 72 h [12] [nM]	IC50, cell viability 72 h [13] [nM]	IC50, cell viability 72 h [14] [nM]	IC50, cell viability 72 h [15] [nM]	IC50, cell viability 72 h [16] [nM]	IC50, cell viability 72 h [17] [nM]	IC50, cell viability 72 h [18] [nM]	IC50, cell viability 72 h [19] [nM]	IC50, cell viability 72 h [20] [nM]	IC50, cell viability 72 h [21] [nM]	IC50, cell viability 72 h [22] [nM]	IC50, cell viability 72 h [23] [nM]	IC50, cell viability 72 h [24] [nM]	IC50, cell viability 72 h [25] [nM]	IC50, cell viability 72 h [26] [nM]	IC50, cell viability 72 h [27] [nM]	IC50, cell viability 72 h [28] [nM]	IC50, cell viability 72 h [29] [nM]	IC50, cell viability 72 h [30] [nM]	IC50, cell viability 72 h [31] [nM]	IC50, cell viability 72 h [32] [nM]	IC50, cell viability 72 h [33] [nM]	IC50, cell viability 72 h [34] [nM]	IC50, cell viability 72 h [35] [nM]
BT-549 (Breast Carcinoma)	> 10000	> 10000	2520	> 1000	25.3	> 10000	> 300	> 1000	> 2000	> 1	> 1000	171	> 3000	> 1000	> 10000	9220	> 10000	592	> 1000	531	> 10000	> 10000	> 10000	> 1000	> 10000	> 1000	> 10000	> 10000	> 10000	> 10000	> 10000	> 300	> 5000	> 10000	> 20000
Ca9-22 (Head and Neck Carcinoma)	> 10000	> 10000	714	657	7.45	> 10000	> 300	> 1000	229	> 1	> 1000	10.5	> 3000	> 1000	7140	> 10000	3840	31.3	931	350	2140	> 10000	9400	> 1000	2370	> 1000	> 10000	1370	> 10000	> 10000	> 10000	73.2	4670	> 10000	> 20000
